Experimental data published in ChEMBL document CHEMBL1201862, “PubChem BioAssay data set” (2004).
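Interpolation was linear, between the two tested concentrations surrounding the appropriate level; five concentrations were tested over 48 hours in 96-well plates. GI50 marks 50% less growth.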 Active and inactive are the calls of the source. Rule as the data show it: active = GI50 up to about 1.1 µM and inactive = higher.

Columns and labels:
Assay in all cases: growth of human tumour cells (NCI), 48 h
SNB-19 = tested on: SNB-19
HCT-116 = tested on: HCT-116
K562 = tested on: K562
DU-145 = tested on: DU-145
NCI-H460 = tested on: NCI-H460
TK-10 = tested on: TK-10
SK-OV-3 = tested on: SK-OV-3
Hs-578T = tested on: Hs-578T
HCC 2998 = tested on: HCC 2998
SK-MEL-28 = tested on: SK-MEL-28
SN12C = tested on: SN12C
UO-31 = tested on: UO-31
U-251 = tested on: U-251
MDA-MB-435 = tested on: MDA-MB-435
KM12 = tested on: KM12
786-0 = tested on: 786-0
COLO 205 = tested on: COLO 205
OVCAR-4 = tested on: OVCAR-4
A549 = tested on: A549
LOX IMVI = tested on: LOX IMVI

Row | Structure (SMILES) | GI50 (SNB-19) | GI50 (HCT-116) | GI50 (K562) | GI50 (DU-145) | GI50 (NCI-H460) | GI50 (TK-10) | GI50 (SK-OV-3) | GI50 (Hs-578T) | GI50 (HCC 2998) | GI50 (SK-MEL-28) | GI50 (SN12C) | GI50 (UO-31) | GI50 (U-251) | GI50 (MDA-MB-435) | GI50 (KM12) | GI50 (786-0) | GI50 (COLO 205) | GI50 (OVCAR-4) | GI50 (A549) | GI50 (LOX IMVI)
1 | O=P(c1ccccc1)(c1ccccc1)C(NCc1ccccc1)c1ccc(F)cc1 (stereo unspecified) | 17.9 µM (inactive) | 12.8 µM (inactive) | 18.7 µM (inactive) | 20 µM (inactive) | 12.2 µM (inactive) | 15.9 µM (inactive) | 16.1 µM (inactive) | 28.4 µM (inactive) | 16.1 µM (inactive) | 15.1 µM (inactive) | 17.9 µM (inactive) | 12.8 µM (inactive) | 15.6 µM (inactive) | 8.41 µM (inactive) | 13.2 µM (inactive) | 18.5 µM (inactive) | 14.7 µM (inactive) | 20.3 µM (inactive) | 15 µM (inactive) | 14.2 µM (inactive)
2 | COC(=O)/C=C1/OC(c2ccccc2)=CC1=O | 17.3 µM (inactive) | 15.9 µM (inactive) | 12 µM (inactive) | 13.7 µM (inactive) | 19.7 µM (inactive) | 18.6 µM (inactive) | 17.5 µM (inactive) | 22.9 µM (inactive) | 18.2 µM (inactive) | 19.9 µM (inactive) | 19 µM (inactive) | 17.8 µM (inactive) | 16.4 µM (inactive) | 18.3 µM (inactive) | 16.7 µM (inactive) | 14.5 µM (inactive) | 15.9 µM (inactive) | 16.4 µM (inactive) | 29 µM (inactive) | 16.2 µM (inactive)
3 | CCC1(CC)C(=O)N(C(=O)c2ccc(Cl)cc2)N(C(=O)c2ccccc2Cl)C1=O | 66.1 µM (inactive) | 31.6 µM (inactive) | 45.7 µM (inactive) | > 100 µM (inactive) | 19.3 µM (inactive) | 31.2 µM (inactive) | > 100 µM (inactive) | 43.5 µM (inactive) | > 100 µM (inactive) | 98.4 µM (inactive) | 45.1 µM (inactive) | > 100 µM (inactive) | 33.3 µM (inactive) | 11.2 µM (inactive) | 52.8 µM (inactive) | 56.8 µM (inactive) | > 100 µM (inactive) | > 100 µM (inactive) | > 100 µM (inactive) | 21 µM (inactive)
4 | C1CSCCSCCCSCCSCCCSCCSCCCSCCSC1 | > 100 µM (inactive) | 62.8 µM (inactive) | > 100 µM (inactive) | > 100 µM (inactive) | > 100 µM (inactive) | > 100 µM (inactive) | > 100 µM (inactive) | > 100 µM (inactive) | > 100 µM (inactive) | > 100 µM (inactive) | > 100 µM (inactive) | > 100 µM (inactive) | > 100 µM (inactive) | > 100 µM (inactive) | > 100 µM (inactive) | > 100 µM (inactive) | > 100 µM (inactive) | > 100 µM (inactive) | > 100 µM (inactive) | > 100 µM (inactive)
5 | COc1ccc(NC(=O)C(C#N)=C(SC)SC)cc1 | > 100 µM (inactive) | > 100 µM (inactive) | > 100 µM (inactive) | > 100 µM (inactive) | > 100 µM (inactive) | > 100 µM (inactive) | > 100 µM (inactive) | > 100 µM (inactive) | > 100 µM (inactive) | > 100 µM (inactive) | > 100 µM (inactive) | 60.3 µM (inactive) | > 100 µM (inactive) | > 100 µM (inactive) | – | > 100 µM (inactive) | > 100 µM (inactive) | > 100 µM (inactive) | > 100 µM (inactive) | > 100 µM (inactive)
6 | CC(C)=CCc1c(O)c(CC=C(C)C)c2oc(-c3ccc(O)cc3O)c(CC=C(C)C)c(=O)c2c1O | 12.6 µM (inactive) | 4.97 µM (inactive) | 4.05 µM (inactive) | 12.4 µM (inactive) | 4.48 µM (inactive) | 8.85 µM (inactive) | 13.3 µM (inactive) | 7.76 µM (inactive) | 4.06 µM (inactive) | 12.2 µM (inactive) | 8.59 µM (inactive) | 8.22 µM (inactive) | 9.12 µM (inactive) | 4.52 µM (inactive) | 5.57 µM (inactive) | 8.91 µM (inactive) | 27.1 µM (inactive) | 5.51 µM (inactive) | 5.4 µM (inactive) | 5.26 µM (inactive)
7 | CN1N=C(c2ccncc2)OC1c1ccc(Cl)cc1Cl (stereo unspecified) | > 100 µM (inactive) | 93.1 µM (inactive) | 50.5 µM (inactive) | > 100 µM (inactive) | > 100 µM (inactive) | > 100 µM (inactive) | 93.3 µM (inactive) | > 100 µM (inactive) | > 100 µM (inactive) | > 100 µM (inactive) | 75.3 µM (inactive) | 93.5 µM (inactive) | > 100 µM (inactive) | 63.7 µM (inactive) | > 100 µM (inactive) | 97.7 µM (inactive) | 36.1 µM (inactive) | 43.6 µM (inactive) | > 100 µM (inactive) | > 100 µM (inactive)
8 | CC1=NN(C(=O)CC(=O)Nc2cccc(C)c2)C(=O)C1/N=N/c1ccc(S(=O)(=O)CCOS(=O)(=O)O)cc1 (stereo unspecified) | 4 µM (inactive) | 0.373 µM (active) | 0.388 µM (active) | 32.3 µM (inactive) | 3.24 µM (inactive) | 13.1 µM (inactive) | 0.326 µM (active) | 4.18 µM (inactive) | 2.17 µM (inactive) | 3.9 µM (inactive) | 0.471 µM (active) | 2.93 µM (inactive) | 3.32 µM (inactive) | 0.211 µM (active) | 2.51 µM (inactive) | 0.463 µM (active) | 2.45 µM (inactive) | 9.42 µM (inactive) | 4.48 µM (inactive) | 0.345 µM (active)
9 | c1cc2c(ncc3cscc32)s1 | > 100 µM (inactive) | > 31.6 µM (inactive) | > 100 µM (inactive) | > 100 µM (inactive) | > 100 µM (inactive) | > 100 µM (inactive) | > 10 µM (inactive) | > 100 µM (inactive) | > 100 µM (inactive) | > 100 µM (inactive) | > 100 µM (inactive) | > 70.6 µM (inactive) | > 87.3 µM (inactive) | > 100 µM (inactive) | > 100 µM (inactive) | > 100 µM (inactive) | > 100 µM (inactive) | > 100 µM (inactive) | > 100 µM (inactive) | > 49.5 µM (inactive)
10 | CC12Nc3c(Cl)cc(Cl)cc3N1C(=O)c1ccccc12 (stereo unspecified) | – | > 100 µM (inactive) | > 10 µM (inactive) | > 100 µM (inactive) | 95.5 µM (inactive) | 42.2 µM (inactive) | > 100 µM (inactive) | 48 µM (inactive) | > 100 µM (inactive) | > 100 µM (inactive) | > 100 µM (inactive) | 52.7 µM (inactive) | > 100 µM (inactive) | > 100 µM (inactive) | > 100 µM (inactive) | > 100 µM (inactive) | > 100 µM (inactive) | 90.2 µM (inactive) | > 100 µM (inactive) | 96.6 µM (inactive)
11 | CC#CCCCC1(C)CCNC1=S (stereo unspecified) | > 10 µM (inactive) | – | > 10 µM (inactive) | > 10 µM (inactive) | > 10 µM (inactive) | > 10 µM (inactive) | > 10 µM (inactive) | > 10 µM (inactive) | > 10 µM (inactive) | – | > 10 µM (inactive) | > 10 µM (inactive) | > 10 µM (inactive) | > 10 µM (inactive) | > 10 µM (inactive) | > 10 µM (inactive) | – | > 10 µM (inactive) | > 10 µM (inactive) | > 10 µM (inactive)
12 | CS/C=C\C(=O)O[C@H]1C[C@@H]2[C@@H](O)c3occ(C)c3C[C@]2(C)[C@@H](C)C1 | 35.6 µM (inactive) | 17.5 µM (inactive) | 15.4 µM (inactive) | 27.9 µM (inactive) | 21.6 µM (inactive) | 50 µM (inactive) | 36.6 µM (inactive) | 29.6 µM (inactive) | 29.2 µM (inactive) | 19.8 µM (inactive) | 16 µM (inactive) | – | 2.96 µM (inactive) | 23.1 µM (inactive) | 91 µM (inactive) | 16.6 µM (inactive) | 17.9 µM (inactive) | 22.2 µM (inactive) | – | 17.6 µM (inactive)
13 | CCC(C)C1NC(=O)C(NC(=O)C(CC(C)C)N(C)C(=O)[C@@H]2CC(O)CN2C(=O)[C@H](C)O)C(C)OC(=O)[C@H](Cc2ccc(OC)cc2)N(C)C(=O)[C@@H]2CCCN2C(=O)[C@H](CC(C)C)NC(=O)C(C)C(=O)[C@H](C(C)C)OC(=O)CC1O (stereo partly specified) | 0.164 µM (active) | 0.0458 µM (active) | 0.29 µM (active) | 0.356 µM (active) | 0.117 µM (active) | 0.676 µM (active) | 0.179 µM (active) | 0.0266 µM (active) | 0.148 µM (active) | 0.0462 µM (active) | 0.147 µM (active) | 1.44 µM (inactive) | 0.0718 µM (active) | 0.152 µM (active) | 0.035 µM (active) | 0.258 µM (active) | 0.117 µM (active) | 0.17 µM (active) | 0.325 µM (active) | 0.138 µM (active)
14 | Nc1ccc(-c2nn3c(COc4ccc(Cl)cc4)nnc3s2)cc1 | 88.1 µM (inactive) | – | > 100 µM (inactive) | > 100 µM (inactive) | 40 µM (inactive) | > 100 µM (inactive) | > 100 µM (inactive) | 25.3 µM (inactive) | > 100 µM (inactive) | > 100 µM (inactive) | > 100 µM (inactive) | 84.9 µM (inactive) | > 100 µM (inactive) | 62.2 µM (inactive) | – | > 100 µM (inactive) | 74.5 µM (inactive) | > 100 µM (inactive) | > 100 µM (inactive) | > 100 µM (inactive)
